# Target: T1, human olfactory receptor OR7D4 (Homo sapiens, UniProt Q8NG98)
# T1 construct: transfected with a plasmid containing CRE-luciferase and a plasmid containing OR7D4; expressed in transfected cells; host or cells: HEK293T stably expressing olfactory chaperone proteins of the RTP family
# T1 sequence (Q8NG98 1-312): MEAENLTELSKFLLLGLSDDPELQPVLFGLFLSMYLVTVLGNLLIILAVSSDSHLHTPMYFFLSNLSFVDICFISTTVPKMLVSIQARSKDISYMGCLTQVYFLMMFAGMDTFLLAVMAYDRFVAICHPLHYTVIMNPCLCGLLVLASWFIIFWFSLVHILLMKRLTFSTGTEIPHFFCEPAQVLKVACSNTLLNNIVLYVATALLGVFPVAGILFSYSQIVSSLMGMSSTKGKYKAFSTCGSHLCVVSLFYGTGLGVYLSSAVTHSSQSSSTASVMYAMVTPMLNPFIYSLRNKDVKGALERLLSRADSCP
# Assay: OR7D4 luciferase gene reporter assay (antagonism of agonist-induced activation)
# Type: cell-based
# Details: dose-response, luciferase assay; half decrease of the luciferase production obtained without antagonist; androstenone at 31.6 micromolar
# Description: Cells were maintained in minimal essential medium (EMEM, Lonza) containing 10% fetal bovine serum (M10). HEK293T stably expressing olfactory chaperone proteins from the RTP family as described in WO 2006/002161 (introduced here as a reference) were generated by transfecting HEK293T cells with expression vector containing the chaperone gene sequences and a resistance gene to puromycin, using Lipofectamine 2000. A recombinant cell population was selected by adding 10 μg/ml of puromycin into the culture medium. Monoclonal populations were further obtained by limit dilution procedure. Briefly, a cell suspension was diluted to contain 1 cell per ml and this dilution was dispatched in poly-D-lysine-coated 96 well plates (200 μl of dilution per well). After 5 days of culture, the presence and number of cell colonies per well was checked under a phase contrast microscope. After 5 additional days of culture, wells containing a single colony were harvested and each collected population was amplified independently.
# The 5-alpha-androst-16-ene-3-one, used as an agonist of the human olfactory receptor OR7D4 and the tested molecules were diluted at a concentration of 1 mole/litre (M) into dimethyl sulfoxide (DMSO) to generate stock solutions.
# For concentration-response analysis, serial dilutions of the tested molecules were prepared from stock solutions in EMEM plated into 96-well plates.
# Briefly, cells were plated on poly-D-lysine-coated 96-well plates (BD Bioscience, Erembodegem-Dorp, Belgium) and transfected with a plasmid containing CRE-luciferase and a plasmid containing OR7D4. Sixteen hours after transfection, the culture medium was replaced by serum-free EMEM containing the tested ligands at a determined concentration. After four hours of incubation at 37° C. degree, cells were lysed and processed for luminescence measurement according to the manufacturer's protocols. Luminescence emission was recorded on a Spectra Max M5 reader (Molecular Devices, Sunnyvale, Calif.). Results were expressed as percentage of the response induced by 10 μM of the adenylate cyclase activator Forskolin.
# The ability of the compounds of the invention to inhibit the activity of androstenone on OR7D4 receptor was assessed by the luciferase assay described above.
# To determine whether a molecule antagonizes OR7D4, this compound was introduced in the incubation medium of the Luciferase assay described above at a concentration of either 316 μM, 100 μM or 31.6 μM, along with the known activator of the receptor 5α-androst-16-en-3-one at a concentration of 31.6 μM. Molecules were considered as “hits” i.e., as having an antagonist effect on the receptor, if they induced a decrease of at least 50% of the luciferase production elicited upon activation of OR7D4 by 5α-androst-16-en-3-one.
# Putative antagonist molecule libraries containing compound 1 and other types of molecules were used to identify antagonist of the receptor OR7D4. The screening campaign was performed on the OR7D4 with a series of 112 putative antagonist molecules. In this screening campaign, compound 1 was identified as a hit.
# The compound 1 was further confirmed as antagonist of OR7D4 by performing dose-response analysis using the luciferase assay. Different concentrations of compound 1, ranging from 31.6 nM to 1 mM were tested on HEK293 cell expressing OR7D4 and stimulated with 31.6 μM of 5α-androst-16-en-3-one.
# The antagonistic property of compound 1 on OR7D4 was further confirmed by measuring the response of the OR7D4 to 5α-androsta-4,16-dien-3-one in presence of compound 1, using the luciferase assay as describe hereinabove. The observed inhibition was in the same range as the one observed when stimulating the receptor with 5α-androst-16-en-3-one.
# To further explore the antagonism on OR7D4, a series of compounds structurally related to compound 1 were synthesized and assessed as antagonists of OR7D4 by dose-response analysis using the luciferase assay. […]
row,Compound,IC50 [µM]
1,"CCOC(=O)/C(C)=C/C=C/c1cccc(OC)c1 [Compound 2, ethyl (2E,4E)-5-(3-methoxyphenyl)-2-methylpenta-2,4-dienoate]",25
2,"CCCc1ccccc1/C=C/C=C/C(=O)OCC [Compound 3, ethyl (2E,4E)-5-(2-propylphenyl)penta-2,4-dienoate]",50
3,"CCCCCCC(/C=C/C(=O)OCC)=C\c1ccc(F)cc1 [Compound 5, ethyl (E)-4-((E)-4-fluorobenzylidene)dec-2-enoate]",14
4,"CCOC(=O)/C(C)=C/C(=C/c1ccccc1OCC)CC [Compound 6, ethyl (E)-4-((E)-2-ethoxybenzylidene)-2-methylhex-2-enoate]",25
5,C=CCCCCC(=C\c1ccccc1)/C=C(\C)C(=O)OCC [Compound 8],1
6,CCCCCCC(/C=C/C(=O)OCC)=C\c1ccccc1 [Compound 13],7
7,"CCCCCCC(/C=C/C#N)=C\c1ccccc1 [Compound 16, 4-benzylidenedec-2-enenitrile]",8
8,CCCCCCC(/C=C(\C)C#N)=C\c1ccccc1 [Compound 17],12
9,CCOc1ccccc1/C=C(/C=C(\C)C(=O)O)CC [Compound 20],32
10,CCCCCCC(/C=C/C(=O)O)=C\c1ccccc1 [Compound 22],75
11,"CCc1cccc(/C=C(C)/C=C/C(=O)N(C)C)c1 [Compound 25, (2E,4E)-5-(3-ethylphenyl)-N,N,4-trimethylpenta-2,4-dienamide]",126
12,CCCCCCC(/C=C/C(N)=O)=C\c1ccccc1 [Compound 27],14
13,"CCCCCCC(=C\c1ccccc1)/C=C(\C)C(=O)N(C)C [Compound 28, (E)-4-((E)-benzylidene)-N,N,2-trimethyldec-2-enamide]",2
14,"CCCCCCC(=C\c1ccccc1)/C=C(\C)C(C)=O [Compound 29, 5-benzylidene-3-methylundec-3-en-2-one]",1
15,"COc1cccc(/C=C/C=C(\C)CO)c1 [Compound 31, (2E,4E)-5-(3-methoxyphenyl)-2-methylpenta-2,4-dien-1-ol]",63
16,"CCCc1ccccc1/C=C/C=C/CO [Compound 32, (2E,4E)-5-(2-propylphenyl)penta-2,4-dien-1-ol]",126
17,"CCCCCCC(/C=C/CO)=C\c1ccc(F)cc1 [Compound 33, (E)-4-((E)-4-fluorobenzylidene)dec-2-en-1-ol]",18
18,CCCCCC(/C=C(\C)CO)=C\c1ccccc1 [Compound 34],19
19,"CCCc1ccccc1/C=C/C=C/C=O [Compound 37, (2E,4E)-5-(2-propylphenyl)penta-2,4-dienal]",126
20,CCCCCC(/C=C(\C)C=O)=C\c1ccccc1 [Compound 40],29
21,"CCCCCCC(/C=C(\C)COCC)=C\c1ccccc1 [Compound 43, ((E)-2-((E)-3-ethoxy-2-methylprop-1-en-1-yl)oct-1-en-1-yl)benzene]",126
22,"CCCCCCC(/C=C(\C)COCC)=C\c1ccc(F)cc1 [Compound 44, 1-((E)-2-((E)-3-ethoxy-2-methylprop-1-en-1-yl)oct-1-en-1-yl)-4-fluorobenzene]",22
23,"CCCCCC(/C=C/C(=O)OC)=C\c1ccc(F)cc1 [Compound 46, methyl (2E,4E)-4-(4-fluorobenzylidene)-2-nonenoate]",25
24,(E)-4-((E)-4-fluorobenzylidene)dec-2-enal [Compound 38],25

# Further compounds by falling IC50, results first:
row,IC50 [µM],Compound
1,187,CCCC(/C=C(\C)C=O)=C\c1ccccc1 [Compound 41]
2,85,CCCC(/C=C/C(=O)OCC)=C\c1ccccc1 [Compound 15]
3,79,"COc1cccc(/C=C/C=C(\C)C=O)c1 [Compound 36, (2E,4E)-5-(3-methoxyphenyl)-2-methylpenta-2,4-dienal]"
4,62,"CCCCCCC(=C\c1ccccc1)/C=C(\C)C(=O)O [Compound 21, 4-benzylidene-2-methyldec-2-enoic Acid]"
5,53,CCCC(/C=C(\C)CO)=C\c1ccccc1 [Compound 35]
6,45,"CCCCCCC(=C\c1ccc(C#N)cc1)/C=C(\C)C(=O)O [Compound 19, (E)-4-((E)-4-cyanobenzylidene)-2-methyldec-2-enoic Acid]"
7,25,"CCCCCCC(/C=C(\C)COC)=C\c1ccccc1 [Compound 42, ((E)-2-((E)-3-methoxy-2-methylprop-1-en-1-yl)oct-1-en-1-yl)benzene]"
8,16,"CCCCCc1ccccc1/C=C/C=C/C(=O)OCC [Compound 4, ethyl (2E,4E)-5-(2-pentylphenyl)penta-2,4-dienoate]"
9,14,CCCCCC(/C=C/C(=O)OCC)=C\c1ccccc1 [Compound 14]
10,13,"CCCCCCC(=C\c1ccc(C#N)cc1)/C=C(\C)C(=O)OCC [Compound 7, ethyl (E)-4-((E)-4-cyanobenzylidene)-2-methyldec-2-enoate]"
11,8,CCOC(=O)/C(C)=C/C(=C/c1ccccc1)C(C)CC(C)(C)C (stereo not drawn) [Compound 11]
12,8,CCOC(=O)/C(C)=C/C(=C/c1ccccc1)CC1CCCC1 [Compound 12]
13,6,"CCCCCCC(/C=C/C(C)=O)=C\c1ccccc1 [Compound 30, (E)-5-((E)-benzylidene)undec-3-en-2-one]"
14,6,"CCCCCCC(/C=C/C=O)=C\c1ccccc1 [Compound 39, (E)-4-((E)-benzylidene)dec-2-enal]"
15,4,"CCCCCC(/C=C/C(=O)OCC)=C\c1ccc(F)cc1 [Compound 45, ethyl (E)-4-((E)-4-fluorobenzylidene)non-2-enoate]"
16,2,CCCCCCC(/C=C/C(=O)OC)=C\c1ccccc1 [Compound 10]
17,2,"CCCCCCC(=C\c1ccccc1)/C=C(\C)C(=O)NC [Compound 24, (E)-4-((E)-benzylidene)-N,2-dimethyldec-2-enamide]"
18,1,"CCCCCCC(=C\c1ccccc1)/C=C(\C)C(N)=O [Compound 23, (E)-4-((E)-benzylidene)-2-methyldec-2-enamide]"

# Reference: patent publication US11382848B2, “Compounds reducing malodour perception and the use thereof” (CHEMCOM S.A., priority 2017, dated 2022)
